In patent publication US8993616B2, “(aza)indole derivative and use thereof for medical purposes” (Kissei Pharmaceutical Co., Ltd., priority 2007, dated 2015):

biological target: Xanthine oxidase (from bovine milk, Sigma) (Bos taurus (Bovine), UniProt P80457); experiment: Xanthine oxidase inhibitory activity; type: biochemical; settings: xanthine substrate, 10 minutes at room temperature, absorbance at 290 nm
Method: (1) Preparation of Test Compounds
Test compounds were dissolved in DMSO (Wako) at 40 mM concentration and then diluted to intended concentrations with phosphate-buffered saline (PBS).
(2) Method for Measurement
Xanthine oxidase (from bovine milk, Sigma) was prepared with phosphate-buffered saline (PBS) at 0.02 units/mL, and then the solution was added to 96 well plates at 50 μL/well. In addition, test compounds diluted with PBS were added at 50 μL/well. Xanthine (Wako) at 200 μM prepared with PBS was added at 100 μL/well, and the reaction was conducted for 10 minutes at room temperature. Absorbance at 290 nm was measured using a microplate reader SpectraMax Plus 384 (Molecular device). The absorbance under a condition without xanthine is 0%, and control without test compounds is 100%. Fifty % inhibitory concentration of a test compound (IC50) was calculated (Table 60). Ex. No in the table indicates Example number.

Chain of Xanthine oxidase (from bovine milk, Sigma) (P80457 whole entry): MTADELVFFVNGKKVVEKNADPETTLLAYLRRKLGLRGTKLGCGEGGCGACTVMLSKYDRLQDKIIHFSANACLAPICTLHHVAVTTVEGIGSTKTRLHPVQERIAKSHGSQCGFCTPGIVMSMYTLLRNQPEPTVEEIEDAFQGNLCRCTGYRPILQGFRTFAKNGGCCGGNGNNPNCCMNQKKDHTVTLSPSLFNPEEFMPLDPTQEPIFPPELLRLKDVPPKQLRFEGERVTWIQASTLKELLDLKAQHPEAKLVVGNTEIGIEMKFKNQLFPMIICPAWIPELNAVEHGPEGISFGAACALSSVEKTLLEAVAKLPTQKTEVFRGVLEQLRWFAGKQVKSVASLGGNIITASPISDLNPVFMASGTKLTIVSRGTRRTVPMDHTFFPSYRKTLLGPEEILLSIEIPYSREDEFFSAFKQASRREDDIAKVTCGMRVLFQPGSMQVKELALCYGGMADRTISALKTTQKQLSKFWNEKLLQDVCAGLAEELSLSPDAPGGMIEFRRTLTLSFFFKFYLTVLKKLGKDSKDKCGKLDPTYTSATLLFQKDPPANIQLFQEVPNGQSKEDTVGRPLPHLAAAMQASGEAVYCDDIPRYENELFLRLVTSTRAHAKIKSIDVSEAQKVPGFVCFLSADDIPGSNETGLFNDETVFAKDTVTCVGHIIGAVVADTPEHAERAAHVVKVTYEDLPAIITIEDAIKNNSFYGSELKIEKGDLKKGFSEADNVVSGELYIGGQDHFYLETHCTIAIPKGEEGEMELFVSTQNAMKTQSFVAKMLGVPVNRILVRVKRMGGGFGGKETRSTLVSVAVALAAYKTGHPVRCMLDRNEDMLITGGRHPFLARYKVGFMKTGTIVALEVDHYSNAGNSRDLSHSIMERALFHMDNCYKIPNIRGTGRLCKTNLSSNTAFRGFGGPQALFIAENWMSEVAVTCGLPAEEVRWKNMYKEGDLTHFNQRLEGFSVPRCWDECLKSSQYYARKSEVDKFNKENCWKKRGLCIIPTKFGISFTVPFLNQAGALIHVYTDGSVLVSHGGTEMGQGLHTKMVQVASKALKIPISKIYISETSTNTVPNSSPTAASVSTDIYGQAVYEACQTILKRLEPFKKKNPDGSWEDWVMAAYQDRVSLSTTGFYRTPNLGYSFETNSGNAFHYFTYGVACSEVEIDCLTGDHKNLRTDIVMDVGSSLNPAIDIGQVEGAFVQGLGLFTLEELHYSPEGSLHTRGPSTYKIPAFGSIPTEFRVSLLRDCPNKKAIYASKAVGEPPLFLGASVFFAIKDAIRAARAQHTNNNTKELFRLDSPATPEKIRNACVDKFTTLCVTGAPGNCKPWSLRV

| SMILES | IC50 |
| --- | --- |
| N#Cc1cn(-c2ccc(C(=O)O)c(O)c2)c2cc3c(cc12)OCO3 [Example 194] | 8.3 nM |
| N#Cc1cn(-c2ccc(C(=O)O)c(O)c2)c2cc(Cl)c(F)cc12 [Example 193] | 4.6 nM |
| N#Cc1cn(-c2ccc(C(=O)O)cc2)c2ccc(OCCOCc3ccccc3)cc12 [Example 175] | 22.2 nM |
| N#Cc1cn(-c2ccc(C(=O)O)c(O)c2)c2cc(OCCO)ccc12 [Example 218] | 6 nM |
| Cc1ccc2c(c1)c(C#N)cn2-c1ccc(C(=O)O)cn1 [Example 143] | 24.4 nM |
| N#Cc1cn(-c2ccc(C(=O)O)c(O)c2)c2cc(OCc3cccc(Cl)c3)ccc12 [Example 231] | 29.1 nM |
| N#Cc1cn(-c2ccc(C(=O)O)c(O)c2)c2cccc(O)c12 [Example 203] | 7.1 nM |
| CCCCOc1ccc2c(C#N)cn(-c3ccc(C(=O)O)c(O)c3)c2c1 [Example 221] | 71.5 nM |
| N#Cc1cn(-c2ccc(C(=O)O)c(O)c2)c2cccc(F)c12 [Example 225] | 4.6 nM |
| N#Cc1cn(-c2ccc(C(=O)O)cc2)c2cc(OCCO)ccc12 [Example 186] | 49.7 nM |
| COCCOc1ccc2c(C#N)cn(-c3ccc(C(=O)O)cc3)c2c1 [Example 185] | 40.2 nM |
| N#Cc1cn(-c2ccc(C(=O)O)cc2)c2ccc(OCc3ccccc3)cc12 [Example 151] | 22.4 nM |
| Cc1ccc2c(c1)c(C#N)cn2-c1nc(C)c(C(=O)O)s1 [Example 187] | 16.4 nM |
| CN(C)CCCOc1ccc2c(C#N)cn(-c3ccc(C(=O)O)c(O)c3)c2c1 [Example 226] | 10 nM |
| COCCOc1ccc2c(C#N)cn(-c3ccc(C(=O)O)c(O)c3)c2c1 [Example 215] | 10.5 nM |
| N#Cc1cn(-c2ccc(C(=O)O)c(O)c2)c2ccccc12 [Example 188] | 5 nM |
| COc1cccc(-c2ccc3c(c2)c(C#N)cn3-c2ccc(C(=O)O)cc2)c1 [Example 156] | 11.9 nM |
| Cc1cc2c(C#N)cn(-c3ccc(C(=O)O)c(O)c3)c2cc1F [Example 316] | 10 nM |

| SMILES | IC50 |
| --- | --- |
| Cc1cc2c(C#N)cn(-c3ccc(C(=O)O)cn3)c2cc1F [Example 307] | 13 nM |
| N#Cc1cn(-c2ccc(C(=O)O)cc2)c2ccc(/C=C/C(=O)O)cc12 [Example 17, 4-[5-((E)-2-Carboxyvinyl)-3-cyanoindol-1-yl]benzoic acid] | 12.1 nM |
| N#Cc1cn(-c2ccc(C(=O)O)c(N)c2)c2ccccc12 [Example 42, 2-Amino-4-(3-cyanoindol-1-yl)benzoic acid] | 175 nM |
| CCCOc1ccc2c(C#N)cn(-c3ccc(C(=O)O)c(O)c3)c2c1 [Example 220] | 9.4 nM |
| N#Cc1cn(-c2ccc(C(=O)O)cc2)c2ccc(O)cc12 [Example 152] | 15.8 nM |
| N#Cc1cn(-c2ccc(C(=O)O)c(O)c2)c2cc(OCC(=O)O)ccc12 [Example 216] | 7.4 nM |
| N#Cc1cn(-c2ccc(C(=O)O)c(O)c2)c2cc(OCC3CCC3)ccc12 [Example 234] | 86.5 nM |
| N#Cc1cn(-c2ccc(C(=O)O)c(O)c2)c2cc(F)ccc12 [Example 192] | 4.3 nM |
| N#Cc1cn(-c2ccc(C(=O)O)c(O)c2)c2ccc(F)cc12 [Example 191] | 3.9 nM |
| COc1c(C)cc2c(c(C#N)cn2-c2ccc(C(=O)O)cc2)c1C [Example 288] | 10 nM |
| N#Cc1cn(-c2ccc(C(=O)O)c(O)c2)c2cc(F)c(F)cc12 [Example 3, 4-(3-Cyano-5,6-difluoroindol-1-yl)-2-hydroxybenzoic acid] | 6.5 nM |
| CCOc1ccc2c(C#N)cn(-c3ccc(C(=O)O)c(O)c3)c2c1 [Example 223] | 7.5 nM |
| N#Cc1cn(-c2ccc(C(=O)O)c(O)c2)c2cc(OCCCCO)ccc12 [Example 229] | 7.1 nM |
| N#Cc1cn(-c2ccc(C(=O)O)cc2)c2ccc(-c3cccs3)cc12 [Example 158] | 9.5 nM |
| COc1ccc2c(c1)c(C#N)cn2-c1ccc(C(=O)O)c(O)c1 [Example 196] | 6.7 nM |
| CS(=O)(=O)NCCCOc1ccc2c(C#N)cn(-c3ccc(C(=O)O)c(O)c3)c2c1 [Example 240] | 9.8 nM |
| COc1ccc(-c2ccc3c(c2)c(C#N)cn3-c2ccc(C(=O)O)cc2)cc1 [Example 15, 4-[3-Cyano-5-(4-methoxyphenyl)indol-1-yl]benzoic acid] | 15.5 nM |
| COCCNC(=O)c1ccc2c(c1)c(C#N)cn2-c1ccc(C(=O)O)cc1 [Example 162] | 16.5 nM |

biological target: human URAT1 (Homo sapiens (Human), UniProt Q96S37); experiment: Inhibitory activity of uric acid transport with human URAT1 expressing cells; type: cell-based; settings: COS-7; 10 μM test compound; 14C-labeled uric acid uptake in COS7 cells transiently expressing human URAT1, 5 minutes
Method: (1) Preparation of Transiently Human URAT1 Expressing Cells
Full length human URAT1 cDNA (NCBI Accession No. NM_144585) was subcloned into expression vector, pcDNA3.1 (Invitrogen). Human URAT1 expression vector was transfected into COS7 cells (RIKEN CELL BANK RCB0539) using Lipofectamine 2000. COS7 cells were cultured in collagen-coated 24 well plates (Asahi Techno Glass) at 2×10^5/well in D-MEM culture medium (Invitrogen) containing 10% fetal bovine serum (Sanko Junyaku) for 2 hours at 37° C. under the condition of 5% CO2. For 1 well, 2 μL of Lipofectamine 2000 was diluted in 50 μL of OPTI-MEM (Invitrogen) and allowed to stand at room temperature for 7 minutes (hereinafter referred to as Lipo2000-OPTI). For 1 well, 0.8 μg of human URAT1 expression vector was diluted in 50 μL of OPTI-MEM (Invitrogen) and combined gently with Lipo2000-OPTI. After standing at room temperature for 25 minutes, the mixture was added to COS7 cells at 100 μL/well. […]
All tests were performed on hot-plate at 37° C. […] After mixing, the radioactivity was counted in a liquid scintillation counter (PerkinElmer). The radioactivity in COST cells not transfected with URAT1 expression vector was also counted under the same condition as control. […]
• A: Radioactivity in control • B: Radioactivity in the case of addition of test compounds • C: Radioactivity in COST cells not transfected with URAT1 expression vector

Chain of human URAT1 (Q96S37 whole entry): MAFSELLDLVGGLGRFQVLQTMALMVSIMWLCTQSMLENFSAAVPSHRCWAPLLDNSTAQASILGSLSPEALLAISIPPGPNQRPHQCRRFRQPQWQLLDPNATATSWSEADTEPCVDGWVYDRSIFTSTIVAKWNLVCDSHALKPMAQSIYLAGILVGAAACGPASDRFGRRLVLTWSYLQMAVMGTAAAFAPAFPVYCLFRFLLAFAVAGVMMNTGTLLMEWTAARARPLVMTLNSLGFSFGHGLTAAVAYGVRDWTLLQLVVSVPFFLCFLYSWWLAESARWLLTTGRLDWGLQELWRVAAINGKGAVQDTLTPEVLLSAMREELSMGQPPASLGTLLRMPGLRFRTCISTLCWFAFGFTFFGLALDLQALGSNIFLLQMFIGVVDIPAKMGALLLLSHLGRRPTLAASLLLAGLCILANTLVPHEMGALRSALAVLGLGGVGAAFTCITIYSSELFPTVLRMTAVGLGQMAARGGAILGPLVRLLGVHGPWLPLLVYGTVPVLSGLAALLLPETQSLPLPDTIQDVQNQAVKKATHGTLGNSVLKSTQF

| SMILES | inhibition at 10 µM |
| --- | --- |
| N#Cc1cn(-c2ccc(C(=O)O)c(O)c2)c2cc3c(cc12)OCO3 [Example 194] | 64% |
| N#Cc1cn(-c2ccc(C(=O)O)c(O)c2)c2cc(Cl)c(F)cc12 [Example 193] | 47% |

system: not listed separately; experiment: Serum hypouricemic effect; type: in vivo; settings: 3 mg/kg orally, overnight fasted male CD (SD) IGS rats, 2 hours after administration
Method: (1) Method for Measurement
Test compounds at 3 mg/kg suspended in 0.5% methylcellulose solution were administered orally to overnight fasted male CD (SD) IGS rats (5-week-old, Charls River Japan). At 2 hours after administration, blood was collected under ether anesthesia from abdominal aorta, and serum was separated according to general method. Serum uric acid values were determined by use of uric acid measurement kit (Uric acid C-Test Wako: Wako), and percent decrease in uric acid was calculated according to the formula described below.
Percent decrease in uric acid (%)=(Serum uric acid values in control animals—Serum uric acid values in animals administered test compounds)×100/Serum uric acid values in control animals

| SMILES | Percent decrease in uric acid (hypouricemic effect) |
| --- | --- |
| N#Cc1cn(-c2ccc(C(=O)O)c(O)c2)c2ccccc12 [Example 188] | over 60% |
| N#Cc1cn(-c2ccc(C(=O)O)c(O)c2)c2cc(F)ccc12 [Example 192] | over 60% |
| N#Cc1cn(-c2ccc(C(=O)O)c(O)c2)c2ccc(F)cc12 [Example 191] | over 60% |
| N#Cc1cn(-c2ccc(C(=O)O)c(O)c2)c2cc(F)c(F)cc12 [Example 3, 4-(3-Cyano-5,6-difluoroindol-1-yl)-2-hydroxybenzoic acid] | over 60% |
